Values quoted from earlier work in patent US20150045434A1, “METHIONINE COMPOUND INTENDED FOR ANIMAL FEED” (ROQUETTE FRERES, priority 2011, published 2015).

How the values were obtained:
[1] = at 35° C.

CSCC[C@H](N)C(=O)O [methionine]
pKa1 (pKa of the acid function of methionine) (acid function): 2.2 | pKa2 (pKa of the amine function of methionine) (amine function): 9.3 | solubility of methionine [1]: about 70 g/l
